# Experiments:
# Total Enterobacteriaceae [1] = assay: Total Enterobacteriaceae count in naturally contaminated broiler feed, antimicrobial products with/without PEF (Example 1); assay type: cell-based
# Procedure: (§1) Feed materials. Pig feed, naturally contaminated with Enterobacteriaceae, was obtained from Feed Design Lab (the Netherlands). The naturally contaminated pig feed, not treated with an antimicrobial product, was diluted with mash broiler feed obtained from AVEVE until the required contamination level was obtained (Enterobacteriaceae contamination of 4 log cfu/g). After this dilution, the mash feed was mixed intensively to ensure a homogeneous contamination.
# PEF treatments. PEF experiments were carried out using the PEFPilot™ System (220V, 50 Hz) at ELEA GmbH (Quakenbrück, Germany) at room temperature. The feed was stored at room temperature (20-25° C.) before treatment. An amount of 50 percent additional water (tap-water at room temperature), was added to the feed to prevent the formation of air bubbles, which increase the chance for a dielectric breakdown and arching. Before PEF treatment, the treatment chamber was filled with the feed, the feed was leveled and pressed using a plastic stick. […] Exponential decay pulses with width of 40 microseconds and frequency of 2 Hz were applied. An electric field strength of 5 kV/cm and specific energies of 12 (60 pulses), 120 (600 pulses) and 168 kJ/kg (840 pulses) were applied. The treatment chamber was rinsed after each treatment and pre-cooled in ice-water before new feed samples were added. Each PEF treatment consisted of at least two replicates. The temperature of the feed was measured just after the PEF treatment.
# (§2) Application of antimicrobial products. The products were sprayed on a thin layer of the feed (portions of 300 g) by use of a nebulizer. The product Sal CURB® Ba Liquid (lot number: 1911110883) was dosed at 6 kg/T. Formic acid 85% (RM00672, lot 20000200403), the main component of Sal CURB Ba Liquid (i.e. 50% formic acid) was dosed at 3 kg/T and 6 kg/T. Sal CURB Ba Liquid also contains a mixture of different surfactants.
# Test setups. The effect of the application of the antimicrobials alone on the naturally contaminated feed was tested in a separate experiment. In a first series of PEF experiments (first trial), the antimicrobial products were sprayed on the feed just after applying the PEF treatments, while for the second series of experiments (second trial) the antimicrobial products were applied on the feed before the PEF treatments.
# (§3) Determination of total Enterobacteriacea level. The total Enterobacteriaceae level (TEC) of the feed samples not treated and treated with the antimicrobial products and/or PEF was determined at 24 h after PEF/product treatments. Three suspensions of each feed sample were prepared by mixing 10 g of the sample with 90 g of saline and by homogenizing the samples for 60 seconds in a Stomacher. RAPID' Enterobacteriaceae plates (Bio-Rad, 3564004) were inoculated using a spiral plate counter (Eddy Jet, IUL Instruments). The plates were incubated overnight at 37° C. for 24 h. After incubation, the colonies were counted manually. To obtain accurate results, the minimum number of colonies counted per plate was specified as 10 (a lower number gives less statistically significant results). Values below this limit, at the lowest sample dilution (100 cfu/g), were reported to a value equal to half of this limit (50 cfu/g). The colony-forming units were log-transformed prior to the statistical analyses. The microbiological data were analyzed using the Statgraphics Centurion XVI software (Statpoint Technologies, Inc., Virginia, USA). All data were subjected to one-way ANOVA and differences were separated using the least significant differences procedure. All statements of significance were based on a P-value less than 0.05, unless otherwise specified.
# Total Enterobacteriaceae [2] = assay: Total Enterobacteriaceae count in naturally contaminated broiler feed, products before PEF at reduced additional water (Example 2); assay type: cell-based; details: 3 kg/T before PEF 5 kV/cm, medium 120 kJ/kg; for Log reduction: vs control of same water level
# Procedure: as §1
# as §2, with “500” for “300”, “191111883)” for “1911110883)”, “surfactants. After treatment, the samples were sent to ELEA GmbH (Quakenbrück, Germany) for PEF treatments.” for “surfactants.”
# PEF treatments. PEF experiments were carried out using the PEFPilot™ System (220V, 50 Hz) at ELEA GmbH (Quakenbrück, Germany) at room temperature. The PEF treatments were performed at 8 days after application of the antimicrobial products. The feed samples were stored at room temperature (20-25° C.) before PEF treatment. Each PEF treatment consisted of at least two replicates. Quantities of 50, 20 and 15 percent additional water (tap-water at room temperature), were added to the feed to prevent the formation of air bubbles, which increase the chance for a dielectric breakdown and arching. Before PEF treatment, the treatment chamber was filled with the feed, the feed was leveled and pressed using a plastic stick. […] Exponential decay pulses with width of 40 microseconds and frequency of 2 Hz were applied. An electric field strength of 5 kV/cm and a specific energetic level of 120 kJ/kg (600 pulses) was applied. The treatment chamber was rinsed after each treatment and pre-cooled in ice-water before new feed samples were added.
# Test setups. The antimicrobial products were always applied on the feed before the PEF treatments. The different quantities of added tap-water were mixed homogeneously in the feed just before the PEF treatments. After the treatments, all feed samples were stored at room temperature.
# as §3, with “products” for “products and/or PEF”, “at 10 days after product treatment. The TEC of the PEF treated samples was determined at 48” for “at 24”, “after PEF treatment.” for “after PEF/product treatments.”, “counted manually, as explained in the Internal Instruction.” for “counted manually.”
smiles,measurement,setting,value
O=CO [Formic acid],Log (cfu/g),"Total Enterobacteriaceae [1]; 3 kg/T applied after PEF 5 kV/cm, high intensity 168 kJ/kg, 50% additional water",3.34 h Log (cfu/g)
same,Log reduction,"Total Enterobacteriaceae [1]; 3 kg/T applied after PEF 5 kV/cm, high intensity 168 kJ/kg, vs no-treatment control",0.92 log
same,Log (cfu/g),"Total Enterobacteriaceae [1]; 3 kg/T applied after PEF 5 kV/cm, low intensity 12 kJ/kg, 50% additional water",3.94 de Log (cfu/g)
same,Log reduction,"Total Enterobacteriaceae [1]; 3 kg/T applied after PEF 5 kV/cm, low intensity 12 kJ/kg, vs no-treatment control",0.32 log
same,Log (cfu/g),"Total Enterobacteriaceae [1]; 3 kg/T applied after PEF 5 kV/cm, medium intensity 120 kJ/kg, 50% additional water",4.10 ad Log (cfu/g)
same,Log reduction,"Total Enterobacteriaceae [1]; 3 kg/T applied after PEF 5 kV/cm, medium intensity 120 kJ/kg, vs no-treatment control",0.16 log
same,Log (cfu/g),"Total Enterobacteriaceae [1]; 3 kg/T applied before PEF 5 kV/cm, high intensity 168 kJ/kg, 50% additional water",2.95 d Log (cfu/g)
same,Log reduction,"Total Enterobacteriaceae [1]; 3 kg/T applied before PEF 5 kV/cm, high intensity 168 kJ/kg, vs no-treatment control",2.14 log
same,Log (cfu/g),"Total Enterobacteriaceae [1]; 3 kg/T applied before PEF 5 kV/cm, medium intensity 120 kJ/kg, 50% additional water",3.58 c Log (cfu/g)
same,Log reduction,"Total Enterobacteriaceae [1]; 3 kg/T applied before PEF 5 kV/cm, medium intensity 120 kJ/kg, vs no-treatment control",1.51 log
same,Log (cfu/g),"Total Enterobacteriaceae [1]; 3 kg/T, no PEF, 50% additional water (Table 5, trial 2)",4.15 b Log (cfu/g)
same,Log reduction,"Total Enterobacteriaceae [1]; 3 kg/T, no PEF, vs no-treatment control (Table 5, trial 2)",0.94 log
same,Log (cfu/g),"Total Enterobacteriaceae [1]; 3 kg/T, product alone, no PEF (Table 3)",3.80 ab Log (cfu/g)
same,Log reduction,"Total Enterobacteriaceae [1]; 3 kg/T, product alone, no PEF, vs untreated control (Table 3)",0.37 log
same,Log (cfu/g),"Total Enterobacteriaceae [1]; 6 kg/T applied after PEF 5 kV/cm, high intensity 168 kJ/kg, 50% additional water",3.06 i Log (cfu/g)
same,Log reduction,"Total Enterobacteriaceae [1]; 6 kg/T applied after PEF 5 kV/cm, high intensity 168 kJ/kg, vs no-treatment control",1.20 log
same,Log (cfu/g),"Total Enterobacteriaceae [1]; 6 kg/T applied after PEF 5 kV/cm, low intensity 12 kJ/kg, 50% additional water",4.03 ade Log (cfu/g)
same,Log reduction,"Total Enterobacteriaceae [1]; 6 kg/T applied after PEF 5 kV/cm, low intensity 12 kJ/kg, vs no-treatment control",0.23 log
same,Log (cfu/g),"Total Enterobacteriaceae [1]; 6 kg/T applied after PEF 5 kV/cm, medium intensity 120 kJ/kg, 50% additional water",3.71 fg Log (cfu/g)
same,Log reduction,"Total Enterobacteriaceae [1]; 6 kg/T applied after PEF 5 kV/cm, medium intensity 120 kJ/kg, vs no-treatment control",0.55 log
same,Log (cfu/g),"Total Enterobacteriaceae [1]; 6 kg/T applied before PEF 5 kV/cm, high intensity 168 kJ/kg, 50% additional water",1.70 f^ Log (cfu/g)
same,Log reduction,"Total Enterobacteriaceae [1]; 6 kg/T applied before PEF 5 kV/cm, high intensity 168 kJ/kg, vs no-treatment control",3.39 log
same,Log (cfu/g),"Total Enterobacteriaceae [1]; 6 kg/T applied before PEF 5 kV/cm, medium intensity 120 kJ/kg, 50% additional water",2.25 e Log (cfu/g)
same,Log reduction,"Total Enterobacteriaceae [1]; 6 kg/T applied before PEF 5 kV/cm, medium intensity 120 kJ/kg, vs no-treatment control",2.84 log
same,Log (cfu/g),"Total Enterobacteriaceae [1]; 6 kg/T, no PEF, 50% additional water (Table 5, trial 2)",3.55 c Log (cfu/g)
same,Log reduction,"Total Enterobacteriaceae [1]; 6 kg/T, no PEF, vs no-treatment control (Table 5, trial 2)",1.54 log
same,Log (cfu/g),"Total Enterobacteriaceae [1]; 6 kg/T, product alone, no PEF (Table 3)",3.33 b Log (cfu/g)
same,Log reduction,"Total Enterobacteriaceae [1]; 6 kg/T, product alone, no PEF, vs untreated control (Table 3)",0.84 log
same,Log (cfu/g),Total Enterobacteriaceae [2]; 15% additional water,2.83 c Log (cfu/g)
same,Log reduction,Total Enterobacteriaceae [2]; 15% additional water,1.44 log
same,Log reduction,"Total Enterobacteriaceae [2]; 15% additional water, listed as formic acid",1.4 log
same,Log (cfu/g),Total Enterobacteriaceae [2]; 20% additional water,2.30 d Log (cfu/g)
same,Log reduction,Total Enterobacteriaceae [2]; 20% additional water,2.20 log
same,Log (cfu/g),Total Enterobacteriaceae [2]; 50% additional water,2.82 c Log (cfu/g)
same,Log reduction,Total Enterobacteriaceae [2]; 50% additional water,1.60 log
